Series [1] addresses T1, human calcium-sensing receptor (CaSR) (Homo sapiens, UniProt P41180).
T1 construct: host or cells: HEK293
T1 sequence (P41180 20-1078): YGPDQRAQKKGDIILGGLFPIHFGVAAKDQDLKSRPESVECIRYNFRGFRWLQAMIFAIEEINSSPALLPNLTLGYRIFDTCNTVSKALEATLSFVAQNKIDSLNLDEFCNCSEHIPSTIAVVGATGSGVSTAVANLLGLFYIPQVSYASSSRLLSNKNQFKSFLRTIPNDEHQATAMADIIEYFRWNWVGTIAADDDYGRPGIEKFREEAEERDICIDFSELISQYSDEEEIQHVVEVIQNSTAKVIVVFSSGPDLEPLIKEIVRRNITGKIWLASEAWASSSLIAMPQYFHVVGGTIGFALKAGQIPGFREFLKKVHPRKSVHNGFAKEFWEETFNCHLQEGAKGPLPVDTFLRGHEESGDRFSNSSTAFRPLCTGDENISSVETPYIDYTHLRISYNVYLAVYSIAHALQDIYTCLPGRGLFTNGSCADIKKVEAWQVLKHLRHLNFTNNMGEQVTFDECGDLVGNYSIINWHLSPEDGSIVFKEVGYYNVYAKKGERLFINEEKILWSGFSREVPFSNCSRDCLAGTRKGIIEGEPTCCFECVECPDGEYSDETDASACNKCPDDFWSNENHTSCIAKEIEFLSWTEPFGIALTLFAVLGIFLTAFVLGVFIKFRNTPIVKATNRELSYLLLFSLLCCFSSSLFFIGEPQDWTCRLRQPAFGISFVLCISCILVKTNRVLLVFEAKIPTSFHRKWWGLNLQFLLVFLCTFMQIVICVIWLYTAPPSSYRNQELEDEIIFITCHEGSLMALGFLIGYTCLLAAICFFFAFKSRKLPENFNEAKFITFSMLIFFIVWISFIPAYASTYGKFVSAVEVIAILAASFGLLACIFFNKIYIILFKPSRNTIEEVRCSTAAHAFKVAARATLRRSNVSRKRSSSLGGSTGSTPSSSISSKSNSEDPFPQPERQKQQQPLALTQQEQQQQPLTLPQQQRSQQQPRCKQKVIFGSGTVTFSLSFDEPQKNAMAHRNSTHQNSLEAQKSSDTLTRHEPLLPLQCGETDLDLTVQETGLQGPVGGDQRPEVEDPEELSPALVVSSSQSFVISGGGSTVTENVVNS
The experiment in a line: Agonist activity on human calcium-sensing receptor (IP-One HTRF in stably transfected HEK293/CaSR cells). The series is classed as cell-based. The method, then:
3.1.1 Objective: The test example is intended to measure the agonist activity of compounds 1-38 on the human calcium-sensing receptor (CaSR).
Stably transfected HEK293/CaSR cells (source: Pharmaron) were cultured in a complete medium (composition: DMEM, high glucose+10% FBS+2 mM GlutaMAX+1× Penicillin-Streptomycin+200 μg/mL Hygromycin B) and incubated at 37° C./5% CO2 till 70%-90% cell confluence. The cells were digested with TrypLE, inoculated into 384-well cell culture plates, and cultured overnight at 37° C./5% CO2. After buffer exchange, stimulation buffer (HEPES 10 mM, MgCl2 0.5 mM, KCl 4.2 mM, NaCl 146 mM, glucose 5.5 mM, LiCl 50 mM, CaCl2 1.2 mM) and various concentrations of the test example compounds were added and incubated at 37° C. for 60 min. Production of IP-One in cells was detected according to the procedures in the Cisbio IP-One Tb kit instructions. The EC50 values of various test example compounds in influencing human calcium-sensing receptor was calculated by software after the raw data of the example compounds were collected, so as to evaluate the agonist activity of the example compounds on human calcium-sensing receptor.
HTRF signal was read by an EnVision detector with an excitation wavelength of 320 nm and emission wavelengths of 620 nm and 665 nm. The signal ratio (665 nm/620 nm×10,000) was calculated and fitted non-linearly to the sample concentration in GraphPad Prism 6 using a four-parameter equation to give EC50 values of the test example compounds 1-38.
A general note: In TR-FRET formats the signal depends on donor and acceptor labels being close together.

Series [2] concerns rat peritoneal mast cells. The experiment in a line: In vitro histamine release in rat peritoneal mast cells (histamine ELISA). Format: cell-based. The settings on record: test compound final concentration 10 μM, 15 min at 37° C., relative to PBS buffer (1.00). The method, then:
To evaluate the in vitro histamine release levels induced by some of the test example compounds, rat peritoneal mast cells were collected by lavaging rat peritoneum with a lavage buffer (cold HBSS+25 mM HEPES containing heparin 5 U/mL, pH 7.4). After collection, the cells were centrifuged, and the lavage buffer was discarded. The cells were resuspended and washed twice with a stimulation buffer (HBSS+25 mM HEPES+1 mM CaCl2), pH 7.4). The cells were plated at a density of 10^5 cell/well (200 μL/well) and incubated at 37° C. for 15 min with positive control compound 48/80 (final concentration: 4 μg/mL), test example compounds (final concentration: 10 μM) or vehicle control. The cells were centrifuged, and cell supernatant was collected and tested for histamine concentration according to LDN Histamine ELISA kit (BAE-1000) instructions.
On the technique in general: ELISA stands for enzyme-linked immunosorbent assay.

The mark [3] stands for this setting: HEK293/CaSR cells, IP-One production, 60 min at 37° C., CaCl2 1.2 mM, read-out: EC50 for calcium-sensing receptor.

In general, EC50 refers to the concentration needed to bring the measured effect to its halfway point.

Like-named read-outs stand apart in the source and are kept apart here. Square brackets hold non-standard residues; d marks the D form. Peptide text beside a SMILES is read from it. * marks the point of attachment. dPhe(4-NO2) = N[C@H](Cc1ccc([N+](=O)[O-])cc1)C(=O)O; dPhe(4-Me) = Cc1ccc(C[C@@H](N)C(=O)O)cc1; Cys(free,S-linked) = N[C@@H](CS*)C(=O)O; dPhe(2-Cl) = N[C@H](Cc1ccccc1Cl)C(=O)O; d2Nal = N[C@H](Cc1ccc2ccccc2c1)C(=O)O; d(hLeu) = CC(C)CC[C@@H](N)C(=O)O; dChg = N[C@@H](C(=O)O)C1CCCCC1; dPhg = N[C@@H](C(=O)O)c1ccccc1; dTle = CC(C)(C)[C@@H](N)C(=O)O

On to `CC(=O)N[C@H](CSSC[C@H](N)C(=O)O)C(=O)N[C@H](Cc1ccc(C)cc1)C(=O)N[C@H](CCCNC(=N)N)C(=O)N[C@H](CCCNC(=N)N)C(=O)N[C@H](CCCNC(=N)N)C(=O)N[C@H](C)C(=O)N[C@H](CCCNC(=N)N)C(N)=O` [Compound 3, Ac-c(C)-[D-Phe(4-CH3)]-r-r-r-a-r-NH2] (Ac-[dC](Cys(free,S-linked))[dPhe(4-Me)][dR][dR][dR][dA][dR]-NH2), for which the concentration giving a half-maximal response (EC50) in series [1] (setting [3]) came out at 15.3 µM.

As to `CC(=O)N[C@H](CSSC[C@H](N)C(=O)O)C(=O)N[C@H](CCCNC(=N)N)C(=O)N[C@H](CCCNC(=N)N)C(=O)N[C@H](Cc1c[nH]cn1)C(=O)N[C@H](CCCNC(=N)N)C(=O)N[C@H](CO)C(=O)N[C@H](CCCNC(=N)N)C(N)=O` [Compound 27, Ac-c(C)-r-r-h-r-s-r-NH2] (Ac-[dC](Cys(free,S-linked))[dR][dR][dH][dR][dS][dR]-NH2), in series [1] (setting [3]), the EC50 was determined as 10.8 µM. In addition, in series [2], the “Relative fold of histamine release in vitro” value is 2.23. For `CC(=O)N[C@H](CSSC[C@H](N)C(=O)O)C(=O)N[C@H](CCCNC(=N)N)C(=O)N[C@H](CCCNC(=N)N)C(=O)N[C@H](CCC(C)C)C(=O)N[C@H](CCCNC(=N)N)C(=O)N[C@H](CO)C(=O)N[C@H](CCCNC(=N)N)C(N)=O` [Compound 33, Ac-c(C)-r-r-(D-hLeu)-r-s-r-NH2] (Ac-[dC](Cys(free,S-linked))[dR][dR][d(hLeu)][dR][dS][dR]-NH2) the same measures were 5.03 µM and 2.50. For `CC(=O)N[C@H](CSSC[C@H](N)C(=O)O)C(=O)N[C@H](Cc1ccccc1Cl)C(=O)N[C@H](CCCNC(=N)N)C(=O)N[C@H](CCCNC(=N)N)C(=O)N[C@H](CCCNC(=N)N)C(=O)N[C@H](C)C(=O)N[C@H](CCCNC(=N)N)C(N)=O` [Compound 2, Ac-c(C)-[D-Phe(2-Cl)]-r-r-r-a-r-NH2] (Ac-[dC](Cys(free,S-linked))[dPhe(2-Cl)][dR][dR][dR][dA][dR]-NH2) the same measures were 6.76 µM and 4.96. For `CC(=O)N[C@H](CSSC[C@H](N)C(=O)O)C(=O)N[C@H](CCCNC(=N)N)C(=O)N[C@H](CCCNC(=N)N)C(=O)N[C@H](CCC(C)C)C(=O)N[C@H](CCCNC(=N)N)C(=O)NCC(=O)N[C@H](CCCNC(=N)N)C(N)=O` [Compound 34, Ac-c(C)-r-r-(D-hLeu)-r-G-r-NH2] (Ac-[dC](Cys(free,S-linked))[dR][dR][d(hLeu)][dR]G[dR]-NH2) the same measures were 12.2 µM and 2.28.

For `CC(=O)N[C@H](CSSC[C@H](N)C(=O)O)C(=O)N[C@@H](C(=O)N[C@H](CCCNC(=N)N)C(=O)N[C@H](CCCNC(=N)N)C(=O)N[C@H](CCCNC(=N)N)C(=O)N[C@H](C)C(=O)N[C@H](CCCNC(=N)N)C(N)=O)c1ccccc1` [Compound 1, Ac-c(C)-(D-Phg)-r-r-r-a-r-NH2] (Ac-[dC](Cys(free,S-linked))[dPhg][dR][dR][dR][dA][dR]-NH2), the EC50 in series [1] (setting [3]) stood at 15.7 µM. For the same compound, the “Relative fold of histamine release in vitro” value in series [2] worked out at 1.50. Take `CC(=O)N[C@H](CSSC[C@H](N)C(=O)O)C(=O)N[C@H](CCCNC(=N)N)C(=O)N[C@H](CCCNC(=N)N)C(=O)N[C@H](Cc1c[nH]cn1)C(=O)N[C@H](CCCNC(=N)N)C(=O)NCC(=O)N[C@H](CCCNC(=N)N)C(N)=O` [Compound 28, Ac-c(C)-r-r-h-r-G-r-NH2] (Ac-[dC](Cys(free,S-linked))[dR][dR][dH][dR]G[dR]-NH2): the EC50 in series [1] (setting [3]) amounted to 21.5 µM. `CC(=O)N[C@H](CSSC[C@H](N)C(=O)O)C(=O)N[C@H](CCCNC(=N)N)C(=O)N[C@H](CCCNC(=N)N)C(=O)N[C@H](C)C(=O)N[C@H](CCCNC(=N)N)C(=O)N[C@H](C)C(=O)N[C@H](CCCNC(=N)N)C(N)=O` [Etelcalcetide analogue, Ac-c(C)-r-r-a-r-a-r-NH2, reference compound] (Ac-[dC](Cys(free,S-linked))[dR][dR][dA][dR][dA][dR]-NH2): the EC50 in series [1] worked out at 6.74 µM.

Turning to `CC(=O)N[C@H](CSSC[C@H](N)C(=O)O)C(=O)N[C@H](CCCNC(=N)N)C(=O)N[C@H](CCCNC(=N)N)C(=O)N[C@@H](C(=O)N[C@H](CCCNC(=N)N)C(=O)NCC(=O)N[C@H](CCCNC(=N)N)C(N)=O)C1CCCCC1` [Compound 36, Ac-c(C)-r-r-(D-Chg)-r-G-r-NH2] (Ac-[dC](Cys(free,S-linked))[dR][dR][dChg][dR]G[dR]-NH2), in series [1] (setting [3]), the EC50 was 17.9 µM. The same measure, in the same setting: then `CC(=O)N[C@H](CSSC[C@H](N)C(=O)O)C(=O)N[C@H](CCCNC(=N)N)C(=O)N[C@H](CCCNC(=N)N)C(=O)N[C@H](CCC(N)=O)C(=O)N[C@H](CCCNC(=N)N)C(=O)NCC(=O)N[C@H](CCCNC(=N)N)C(N)=O` [Compound 23, Ac-c(C)-r-r-q-r-G-r-NH2] (Ac-[dC](Cys(free,S-linked))[dR][dR][dQ][dR]G[dR]-NH2), with 30.4 µM.

Take `CC(=O)N[C@H](CSSC[C@H](N)C(=O)O)C(=O)N[C@H](CCCNC(=N)N)C(=O)N[C@H](CCCNC(=N)N)C(=O)N[C@H](Cc1ccc2ccccc2c1)C(=O)N[C@H](CCCNC(=N)N)C(=O)N[C@H](C)C(=O)N[C@H](CCCNC(=N)N)C(N)=O` [Compound 15, Ac-c(C)-r-r-(D-2-NaI)-r-a-r-NH2] (Ac-[dC](Cys(free,S-linked))[dR][dR][d2Nal][dR][dA][dR]-NH2): the EC50 in series [1] (setting [3]) was determined as 5.59 µM. For `CC(=O)N[C@H](CSSC[C@H](N)C(=O)O)C(=O)N[C@H](CCCNC(=N)N)C(=O)N[C@H](CCCNC(=N)N)C(=O)N[C@@H](C(=O)N[C@H](CCCNC(=N)N)C(=O)NCC(=O)N[C@H](CCCNC(=N)N)C(N)=O)C(C)(C)C` [Compound 38, Ac-c(C)-r-r-(D-Tle)-r-G-r-NH2] (Ac-[dC](Cys(free,S-linked))[dR][dR][dTle][dR]G[dR]-NH2), the concentration for a half-maximal effect (EC50) in series [1] (setting [3]) came to 18.7 µM. On the same count and under the same terms, the value for `CC(=O)N[C@H](CSSC[C@H](N)C(=O)O)C(=O)N[C@H](CCCNC(=N)N)C(=O)N[C@H](CCCNC(=N)N)C(=O)N[C@H](Cc1ccc([N+](=O)[O-])cc1)C(=O)N[C@H](CCCNC(=N)N)C(=O)N[C@H](C)C(=O)N[C@H](CCCNC(=N)N)C(N)=O` [Compound 14, Ac-c(C)-r-r-[D-Phe(4-NO2)]-r-a-r-NH2] (Ac-[dC](Cys(free,S-linked))[dR][dR][dPhe(4-NO2)][dR][dA][dR]-NH2) was 4.33 µM; that for `CC(=O)N[C@H](CSSC[C@H](N)C(=O)O)C(=O)N[C@H](Cc1c[nH]c2ccccc12)C(=O)N[C@H](CCCNC(=N)N)C(=O)N[C@H](CCCNC(=N)N)C(=O)N[C@H](CCCNC(=N)N)C(=O)NCC(=O)N[C@H](CCCNC(=N)N)C(N)=O` [Compound 9, Ac-c(C)-w-r-r-r-G-r-NH2] (Ac-[dC](Cys(free,S-linked))[dW][dR][dR][dR]G[dR]-NH2) was 3.16 µM.

These data come from patent US20230041996A1, “CALCIUM-SENSING RECEPTOR AGONIST COMPOUND AND APPLICATION THEREOF” (BEIJING TUO JIE BIOPHARMACEUTICAL CO. LTD., priority 2019, published 2023).
